The record followed here is patent US20220117972A1, “USE OF PPAR-DELTA AGONISTS IN THE TREATMENT OF MITOCHONDRIAL MYOPATHY” (Reneo Pharmaceuticals, Inc., priority 2019, published 2022).

The target in data set [1] is T1, PPARγ (Macaca mulatta, UniProt O18924).
T1 construct: expressed in transfected cells; host or cells: Jump-In GripTite HEK293
T1 sequence (O18924 238-503 limits assumed): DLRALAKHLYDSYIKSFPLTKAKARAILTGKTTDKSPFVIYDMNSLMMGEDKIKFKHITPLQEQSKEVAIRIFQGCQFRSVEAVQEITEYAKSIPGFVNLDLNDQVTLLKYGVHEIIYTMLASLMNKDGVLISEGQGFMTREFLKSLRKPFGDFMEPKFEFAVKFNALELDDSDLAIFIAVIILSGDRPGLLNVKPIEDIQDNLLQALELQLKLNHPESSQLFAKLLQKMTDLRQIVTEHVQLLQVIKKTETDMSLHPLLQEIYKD
Kind of data set: PPAR receptor transactivation assay, monkey PPARγ. Format: cell-based. As for the experimental part: The genes of interest were synthesized and cloned into an appropriate Jump-In™ retargeting vector following the User Guide of the Jump-In™ T-REx™ HEK293 Retargeting Kit (ThermoFisher Catalog No A15008). For example, the vector will be used to transfect and retarget the Jump-In™ HEK293 GripTite™ parental cell line. Stable pools will be antibiotic-selected for about 21 days and tested for target gene expression by functional assay.
Jump-In™ GripTite™ HEK293 parental cells were plated at 60-80% confluency in a T-75 flask in growth medium without antibiotics and transfected with a 1:1 ratio of expression construct and R4 integrase expression construct (20 μg DNA total) using Lipofectamine® LTX (50 μL) and PLUS™ Reagent (20 μL). Following a 48 hours incubation, cells were selected with 600 μg/mL Geneticin® and 10 μg/mL Blasticidin for ˜21 days in growth medium.
Jump-In™ GripTite™ HEK293 rPPAR Alpha, Delta or Gamma UAS-bla-Gal4 cell pools were plated in a 384-well plate format (20,000 cells per well) in OptiMeM without FBS in replicates (n=4). […] After 16 hours, the cells were loaded with LiveBLAzer®, a fluorescent BLA substrate that gives a blue/green readout of expressing/non-expressing cells, respectively. The blue/green readout was measured on a fluorescent plate reader (Tecan Safire II).

Data set [2] deals with T2, PPARδ (UniProt I0FFS1).
T2 construct: This is inferred from the cell pool name 'UAS-bla-Gal4' and from the general description in b82 and b85
T2 sequence (I0FFS1 1-441): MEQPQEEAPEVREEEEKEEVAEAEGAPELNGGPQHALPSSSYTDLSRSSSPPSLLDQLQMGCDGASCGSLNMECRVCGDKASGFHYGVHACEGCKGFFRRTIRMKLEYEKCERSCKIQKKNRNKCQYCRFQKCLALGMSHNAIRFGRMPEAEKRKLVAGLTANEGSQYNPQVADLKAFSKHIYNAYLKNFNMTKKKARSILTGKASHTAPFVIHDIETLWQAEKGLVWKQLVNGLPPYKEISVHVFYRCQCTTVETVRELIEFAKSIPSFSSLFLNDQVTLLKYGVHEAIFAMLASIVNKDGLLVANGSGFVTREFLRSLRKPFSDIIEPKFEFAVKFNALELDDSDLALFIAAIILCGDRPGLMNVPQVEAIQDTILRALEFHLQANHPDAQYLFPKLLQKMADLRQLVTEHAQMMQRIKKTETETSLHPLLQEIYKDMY
Kind of data set: PPAR receptor transactivation assay, monkey PPARδ. Format: cell-based.

Data set [3] addresses T3, PPARα (Mus musculus, UniProt P23204).
T3 construct: expressed in transfected cells; host or cells: Jump-In GripTite HEK293
T3 sequence (P23204 239-466 limits assumed): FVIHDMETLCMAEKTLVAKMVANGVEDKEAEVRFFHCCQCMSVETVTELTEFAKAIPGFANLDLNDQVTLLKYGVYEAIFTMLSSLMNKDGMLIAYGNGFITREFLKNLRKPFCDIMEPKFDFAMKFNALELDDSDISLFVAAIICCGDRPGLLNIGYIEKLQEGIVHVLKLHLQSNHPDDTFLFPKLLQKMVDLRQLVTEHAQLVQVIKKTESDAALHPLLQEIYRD
Nature of the data set: PPAR receptor transactivation assay, mouse PPARα. The format is cell-based.

The target in data set [4] is T4, PPARγ (Mus musculus, UniProt P37238).
T4 construct: expressed in transfected cells; host or cells: Jump-In GripTite HEK293
T4 sequence (P37238 238-503 limits assumed): T1 sequence (O18924 238-503 limits assumed) with S93N, V98I, S146N, L226V, Q245H
Nature of the data set: PPAR receptor transactivation assay, mouse PPARγ. The format is cell-based.

Data set [5] deals with T5, PPARδ (Mus musculus, UniProt P35396).
T5 construct: expressed in transfected cells; host or cells: Jump-In GripTite HEK293
T5 sequence (P35396 210-438 limits assumed): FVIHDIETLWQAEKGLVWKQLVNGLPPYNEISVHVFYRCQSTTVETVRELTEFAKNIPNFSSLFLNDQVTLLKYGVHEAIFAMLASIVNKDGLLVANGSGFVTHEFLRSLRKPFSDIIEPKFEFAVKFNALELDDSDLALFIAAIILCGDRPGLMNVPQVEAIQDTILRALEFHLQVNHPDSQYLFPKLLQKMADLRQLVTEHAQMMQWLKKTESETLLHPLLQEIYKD
Nature of the data set: PPAR receptor transactivation assay, mouse PPARδ. The format is cell-based.

Data set [6] addresses T6, LXRα (Homo sapiens, UniProt Q13133).
T6 sequence (Q13133 1-447): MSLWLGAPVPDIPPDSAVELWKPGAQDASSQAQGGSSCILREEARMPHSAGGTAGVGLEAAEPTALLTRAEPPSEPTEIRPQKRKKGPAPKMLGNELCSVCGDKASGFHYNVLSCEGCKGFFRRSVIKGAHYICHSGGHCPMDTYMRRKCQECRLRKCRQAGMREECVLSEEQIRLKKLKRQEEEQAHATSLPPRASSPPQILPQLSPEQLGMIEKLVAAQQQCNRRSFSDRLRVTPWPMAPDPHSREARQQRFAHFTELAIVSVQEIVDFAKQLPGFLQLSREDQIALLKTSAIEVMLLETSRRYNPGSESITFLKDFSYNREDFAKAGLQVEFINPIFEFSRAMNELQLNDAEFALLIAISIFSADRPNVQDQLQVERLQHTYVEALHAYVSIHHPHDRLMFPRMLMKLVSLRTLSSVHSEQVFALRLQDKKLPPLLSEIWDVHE
Nature of the data set: nuclear receptor LXRα activity. The format is cell-based.

The subject of data set [7] is primary mitochondrial myopathy patients. Kind of data set: clinical trial for primary mitochondrial myopathy (PMM). Format: in vivo, human.
[8] abbreviates: PMM patients, 100 mg once daily for 12 weeks.

Where a chain is given by its changes, count along the chain named. Entries after “also recorded” stand apart in the source; their conditions may differ.

What is called EC50 is the concentration that produces a half-maximal response. For `Cc1cc(OC/C=C(/c2ccc(F)cc2)c2ccc(C#CCN3CCOCC3)cc2)ccc1OCC(=O)O` [Compound 1, (E)-[4-[3-(4-Fluorophenyl)-3-[4-[3-(morpholin-4-yl)propynyl]phenyl]allyloxy]-2-methyl-phenoxy]acetic acid], the EC50 in data set [1] is over 1000 nM; in data set [2] it was 6.6 nM; in data set [3], over 10000 nM; in data set [4], over 10000 nM; in data set [5] it was 240 nM. Moreover, in data set [6], the “activity on the nuclear receptor LXRα” value is recorded as “did not show any”. In data set [7] (setting [8]), the “Modified Fatigue Impact Scale scores” value is given as “trends towards increases”. For the same compound, in data set [7] (setting [8]), the “brief pain index (BPI) score, mean” value is reported as “decreased”. In addition, the “distance walked during a 12-minute walk test” value in data set [7] (setting [8]) was “increase the distance walked; also recorded: Improvements”. For the same compound, in data set [7] (setting [8]), the “peak VO2” value is reported as “trends towards increases”. For the same compound, in data set [7] (PMM subjects that participated in the study), the tolerability result is on record as “well tolerated”.
